≈ marks a conversion by molar mass, not a printed value.
Assays:
mouse TAAR1 = mouse TAAR1 (Mus musculus, UniProt Q923Y8); assay: Competition binding assay, mouse TAAR1
rat TAAR1 = rat TAAR1 (Rattus norvegicus, UniProt Q923Y9); assay: Competition binding assay, rat TAAR1
TAAR1 [1] = assay: Competition binding assay, cynomolgus monkey TAAR1
TAAR1 [2] = target: T1, TAAR1 (Homo sapiens, UniProt Q96RJ0); assay: Competition binding assay, human TAAR1
T1 sequence (Q96RJ0 1-339): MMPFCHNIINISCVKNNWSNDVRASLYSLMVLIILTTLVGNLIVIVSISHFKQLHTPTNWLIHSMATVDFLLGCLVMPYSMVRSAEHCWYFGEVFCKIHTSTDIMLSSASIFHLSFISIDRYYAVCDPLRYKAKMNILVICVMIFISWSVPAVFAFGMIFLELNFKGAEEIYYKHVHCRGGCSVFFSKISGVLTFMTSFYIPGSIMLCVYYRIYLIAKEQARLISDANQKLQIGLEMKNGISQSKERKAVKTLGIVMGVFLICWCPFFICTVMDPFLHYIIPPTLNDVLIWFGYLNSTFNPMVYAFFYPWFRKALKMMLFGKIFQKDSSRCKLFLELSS

[3] = Plasma stability of non-radioactive reference, mouse plasma; assay type: in vitro ADME; settings: 37 °C, up to 5 h
[4] = Plasma stability of non-radioactive reference, rat plasma; assay type: in vitro ADME; settings: 37 °C, up to 5 h
[5] = Plasma stability of non-radioactive reference, non-human primate plasma; assay type: in vitro ADME; settings: 37 °C, up to 5 h
[6] = Plasma stability of non-radioactive reference, human plasma; assay type: in vitro ADME; settings: 37 °C, up to 5 h
[7] = 4-week repeat dose toxicity study, dogs; assay type: in vivo; settings: 4-week repeat dose toxicity study
[8] = 4-week repeat dose toxicity study, rats; assay type: in vivo; settings: 4-week repeat dose toxicity study
Aqueous solubility = assay type: physicochemical; settings: pH 6.5 in 0.05 M phosphate buffer
From the text: (§1) ^a Aqueous solubility at pH 6.5 in 0.05 M phosphate buffer; ^b pH 7.4

[9] = logD (physicochemical profiling); settings: pH 7.4
From the text: as §1

PAMPA permeability = assay type: in vitro ADME
From the text: (§2) Supplement 259_2025_7564_MOESM1_ESM.docx, table 1: Supplemental Table 1. Physicochemical properties of TAAR1-2203. | column: 194.2

[10] = Chemical stability in aqueous buffer; assay type: physicochemical; settings: pH 1, 4, 6.5 and 8 for 2 h at 37 °C
From the text: as §2

[11] = Clearance in human liver microsomes; assay type: in vitro ADME
From the text: (§3) Supplement 259_2025_7564_MOESM1_ESM.docx, table 2: Supplemental Table 2. ADME profile of TAAR1 ligand TAAR1-2203. | column: 14 / 10

[12] = Clearance in rat liver microsomes; assay type: in vitro ADME
From the text: as §3

[13] = Clearance in human hepatocytes; assay type: in vitro ADME
From the text: as §3

[14] = Clearance in rat hepatocytes; assay type: in vitro ADME
From the text: as §3

[15] = Plasma protein binding of TAAR1-2203, human plasma; assay type: in vitro ADME
[16] = Plasma protein binding of TAAR1-2203, rat plasma; assay type: in vitro ADME
human P-glycoprotein = human P-glycoprotein (Homo sapiens, UniProt P08183); assay: P-glycoprotein efflux assay, human P-gp; assay type: in vitro ADME
Sequence of human P-glycoprotein (P08183 whole entry): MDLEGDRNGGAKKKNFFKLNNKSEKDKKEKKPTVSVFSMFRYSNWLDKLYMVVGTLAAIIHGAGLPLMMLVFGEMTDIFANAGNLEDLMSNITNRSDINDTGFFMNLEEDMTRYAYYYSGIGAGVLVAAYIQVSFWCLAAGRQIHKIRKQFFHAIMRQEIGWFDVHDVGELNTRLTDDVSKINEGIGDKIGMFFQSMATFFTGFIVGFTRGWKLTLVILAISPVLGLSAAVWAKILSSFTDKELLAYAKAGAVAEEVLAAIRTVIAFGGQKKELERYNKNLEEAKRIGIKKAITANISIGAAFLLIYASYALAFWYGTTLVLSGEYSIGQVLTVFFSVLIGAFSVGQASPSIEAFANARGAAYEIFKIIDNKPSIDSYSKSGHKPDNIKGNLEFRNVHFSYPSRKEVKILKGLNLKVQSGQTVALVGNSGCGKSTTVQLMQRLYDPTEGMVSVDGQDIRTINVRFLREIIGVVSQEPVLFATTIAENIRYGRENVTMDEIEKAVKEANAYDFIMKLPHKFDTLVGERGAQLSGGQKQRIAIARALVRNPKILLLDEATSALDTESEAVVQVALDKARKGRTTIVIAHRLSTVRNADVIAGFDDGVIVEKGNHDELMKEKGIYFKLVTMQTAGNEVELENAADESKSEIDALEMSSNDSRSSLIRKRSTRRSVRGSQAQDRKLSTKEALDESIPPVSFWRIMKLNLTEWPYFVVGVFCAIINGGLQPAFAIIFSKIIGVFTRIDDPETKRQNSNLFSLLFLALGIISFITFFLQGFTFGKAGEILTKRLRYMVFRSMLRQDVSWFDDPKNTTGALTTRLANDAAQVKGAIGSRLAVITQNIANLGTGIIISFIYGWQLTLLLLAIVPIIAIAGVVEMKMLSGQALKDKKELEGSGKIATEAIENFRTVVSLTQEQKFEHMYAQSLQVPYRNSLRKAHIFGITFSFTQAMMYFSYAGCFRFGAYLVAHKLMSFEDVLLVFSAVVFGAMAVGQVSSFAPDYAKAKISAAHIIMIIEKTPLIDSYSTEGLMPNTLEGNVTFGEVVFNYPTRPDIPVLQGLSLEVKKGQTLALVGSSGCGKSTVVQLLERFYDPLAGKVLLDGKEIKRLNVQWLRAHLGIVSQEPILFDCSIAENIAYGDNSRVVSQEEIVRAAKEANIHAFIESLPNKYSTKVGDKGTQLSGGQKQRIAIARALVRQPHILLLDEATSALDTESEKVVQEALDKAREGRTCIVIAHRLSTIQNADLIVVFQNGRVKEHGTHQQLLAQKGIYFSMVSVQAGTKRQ

mouse P-glycoprotein = mouse P-glycoprotein (Mus musculus, UniProt P21447); assay: P-glycoprotein efflux assay, mouse P-gp; assay type: in vitro ADME
Sequence of mouse P-glycoprotein (P21447 whole entry): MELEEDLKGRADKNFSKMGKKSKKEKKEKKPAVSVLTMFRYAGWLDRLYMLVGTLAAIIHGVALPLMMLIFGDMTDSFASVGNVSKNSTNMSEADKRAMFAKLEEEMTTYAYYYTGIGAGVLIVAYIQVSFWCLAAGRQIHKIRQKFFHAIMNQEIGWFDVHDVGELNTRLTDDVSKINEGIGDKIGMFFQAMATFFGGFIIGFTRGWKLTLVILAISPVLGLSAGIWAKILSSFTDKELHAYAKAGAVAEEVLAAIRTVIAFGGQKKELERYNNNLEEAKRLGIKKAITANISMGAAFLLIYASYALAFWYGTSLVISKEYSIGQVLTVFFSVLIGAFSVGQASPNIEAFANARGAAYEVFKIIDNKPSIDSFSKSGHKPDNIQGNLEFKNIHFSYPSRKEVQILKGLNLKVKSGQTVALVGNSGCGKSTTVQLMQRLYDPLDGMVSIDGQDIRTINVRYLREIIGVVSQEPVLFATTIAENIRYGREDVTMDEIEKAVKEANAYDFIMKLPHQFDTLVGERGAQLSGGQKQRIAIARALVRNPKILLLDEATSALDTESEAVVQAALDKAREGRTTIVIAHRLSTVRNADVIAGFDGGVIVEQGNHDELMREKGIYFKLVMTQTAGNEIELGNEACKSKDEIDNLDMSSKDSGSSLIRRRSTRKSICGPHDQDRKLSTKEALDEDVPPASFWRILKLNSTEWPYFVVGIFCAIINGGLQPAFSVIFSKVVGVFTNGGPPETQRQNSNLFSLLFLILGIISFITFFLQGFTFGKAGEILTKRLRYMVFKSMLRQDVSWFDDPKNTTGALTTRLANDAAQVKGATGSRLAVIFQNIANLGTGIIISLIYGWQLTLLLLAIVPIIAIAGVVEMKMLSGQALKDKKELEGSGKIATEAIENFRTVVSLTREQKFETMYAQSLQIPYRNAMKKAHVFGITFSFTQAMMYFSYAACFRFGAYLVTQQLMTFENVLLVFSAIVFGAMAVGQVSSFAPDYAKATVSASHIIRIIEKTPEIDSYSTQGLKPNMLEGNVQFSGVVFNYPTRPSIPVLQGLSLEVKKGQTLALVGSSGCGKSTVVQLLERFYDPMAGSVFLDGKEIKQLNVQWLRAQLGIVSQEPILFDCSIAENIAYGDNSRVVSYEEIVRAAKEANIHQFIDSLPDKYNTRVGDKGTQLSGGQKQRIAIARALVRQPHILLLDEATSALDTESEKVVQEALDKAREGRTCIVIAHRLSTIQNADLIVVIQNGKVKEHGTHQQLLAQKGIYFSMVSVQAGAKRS

Sequence of rat TAAR1 (Q923Y9 whole entry): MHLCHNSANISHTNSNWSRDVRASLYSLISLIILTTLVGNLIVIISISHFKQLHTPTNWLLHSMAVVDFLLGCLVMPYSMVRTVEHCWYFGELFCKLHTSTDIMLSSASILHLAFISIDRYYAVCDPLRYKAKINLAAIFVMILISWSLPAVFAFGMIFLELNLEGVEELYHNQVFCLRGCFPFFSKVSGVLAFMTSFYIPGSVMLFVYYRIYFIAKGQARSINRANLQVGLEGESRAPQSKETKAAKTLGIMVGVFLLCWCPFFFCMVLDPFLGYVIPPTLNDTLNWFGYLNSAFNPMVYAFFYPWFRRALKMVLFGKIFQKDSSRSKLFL
Sequence of mouse TAAR1 (Q923Y8 whole entry): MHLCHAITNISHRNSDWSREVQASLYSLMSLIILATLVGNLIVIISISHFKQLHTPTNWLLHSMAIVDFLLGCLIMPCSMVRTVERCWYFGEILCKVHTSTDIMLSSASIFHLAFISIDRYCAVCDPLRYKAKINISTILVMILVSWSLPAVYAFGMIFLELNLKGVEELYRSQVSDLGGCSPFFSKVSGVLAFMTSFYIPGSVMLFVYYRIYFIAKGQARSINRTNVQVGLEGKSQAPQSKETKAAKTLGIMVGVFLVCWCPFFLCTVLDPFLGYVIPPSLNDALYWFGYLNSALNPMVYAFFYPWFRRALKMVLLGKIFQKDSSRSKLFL

Question: With `Cc1c(F)cccc1[C@H]1COC(N)=N1` [TAAR1-2203] as the compound, how does the Ki (mouse TAAR1) read?
Answer: The Ki was 0.9 nM.

Question: What about the Ki (rat TAAR1) of the same compound?
Answer: The Ki was 7.4 nM.

Question: What about the Ki (TAAR1 [1]) of the same compound?
Answer: Its Ki is 22.5 nM.

Question: And the Ki (TAAR1 [2])?
Answer: Its Ki is 5.7 nM.

Question: What about the “Stability in mouse plasma” value [3] of the same compound?
Answer: The value was “No degradation was observed”.

Question: And the “Stability in rat plasma” value [4]?
Answer: Its value is “No degradation was observed”.

Question: And the “Stability in non-human primate plasma” value [5]?
Answer: Its value is “No degradation was observed”.

Question: What about the “Stability in human plasma” value [6] of the same compound?
Answer: The value was “No degradation was observed”.

Question: What about the “Doses well tolerated without adverse events, dogs” value [7] of the same compound?
Answer: Its value is “up to 3 mg/kg”.

Question: What about the “Doses well tolerated without adverse events, rats” value [8] of the same compound?
Answer: Its value is at most 10 mg/kg.

Question: What about the Solubility (Aqueous solubility) of the same compound?
Answer: The Solubility was 210 µg/mL (≈ 1080 µM).

Question: What about the logD [9] of the same compound?
Answer: Its logD is 1.12.

Question: What about the “PAMPA Peff” value (PAMPA permeability) of the same compound?
Answer: Its value is 14.5 cm/s*10E^-6.

Question: And the “Chemical stability in aqueous buffer” value [10]?
Answer: Its value is “Stable at pH 1, 4, 6.5 and 8 for 2 h at 37 °C”.

Question: What about the “human clearance in microsomes” value [11] of the same compound?
Answer: The value was 14 µL/min/mg protein.

Question: And the “rat clearance in microsomes” value [12]?
Answer: The value was 10 µL/min/mg protein.

Question: What about the “human clearance in hepatocytes” value [13] of the same compound?
Answer: Its value is 10 µL/min/10E6 cells.

Question: And the “rat clearance in hepatocytes” value [14]?
Answer: The value was 1.7 µL/min/10E6 cells.

Question: What about the “human plasma free fraction” value ([15]; human) of the same compound?
Answer: Its value is 62%.

Question: What about the “Free fraction in human plasma” value ([15]; non-radioactive TAAR1-2203) of the same compound?
Answer: Its value is “approximately 60%”.

Question: What about the “Free fraction in rodent plasma” value ([16]; non-radioactive TAAR1-2203) of the same compound?
Answer: The value was “approximately 60%”.

Question: And the “Free fraction in rat plasma” value ([16]; rat)?
Answer: Its value is 61%.

Question: What about the “Papp, AB inhibitor, human P-glycoprotein assay” value (human P-glycoprotein) of the same compound?
Answer: The value was 41.2 ×10⁻⁶ cm/s.

Question: What about the “human P-glycoprotein efflux ratio” value (human P-glycoprotein) of the same compound?
Answer: Its value is 1.2.

Question: What about the “Papp, AB inhibitor, mouse P-glycoprotein assay” value (mouse P-glycoprotein) of the same compound?
Answer: Its value is 31.6 ×10⁻⁶ cm/s.

Question: What about the “mouse P-glycoprotein efflux ratio” value (mouse P-glycoprotein) of the same compound?
Answer: Its value is 1.0.
